Test results: BindingDB's records for doi:10.1016/s0960-894x(01)00405-x (Glaxosmithkline, 2001)

Target: T1, Enoyl-[acyl-carrier-protein] reductase [NADPH] FabI (Staphylococcus aureus (strain MRSA252), UniProt Q6GI75)
T1 sequence (Q6GI75 whole entry): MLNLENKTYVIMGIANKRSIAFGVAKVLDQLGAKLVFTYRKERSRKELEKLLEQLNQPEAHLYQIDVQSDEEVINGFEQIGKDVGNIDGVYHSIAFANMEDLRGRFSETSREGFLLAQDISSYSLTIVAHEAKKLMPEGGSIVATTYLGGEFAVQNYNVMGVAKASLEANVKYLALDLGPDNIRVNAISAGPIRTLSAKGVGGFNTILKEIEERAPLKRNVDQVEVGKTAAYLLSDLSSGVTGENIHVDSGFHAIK
Assay: Enzyme Inhibition Assay
Conditions: pH 6.5; 30 °C
Experimental: Assays were carried out in half-area, 96-well microtiter plates. Compounds were evaluated in assay mixtures containing components specific for each enzyme. Inhibitors were varied over the range 0.01-10 uM. The consumption of NAD(P)H was monitored for 20 min at 30 °C by following the change in absorbance at 340 nm. IC50 values were estimated from a fit of the initial velocities to a standard equation.

Row | SMILES | IC50 [µM]
1 | CN1Cc2cc(C(=O)N3CCc4c([nH]c5ccccc45)C3)ccc2NC(CC(=O)O)C1=O (stereo not drawn) [2-(4-methyl-3-oxo-7-{1H,2H,3H,4H,9H-pyrido[3,4-b]indol-2-ylcarbonyl}-2,3,4,5-tetrahydro-1H-1,4-benzodiazepin-2-yl)acetic acid] | 7.8
2 | O=C(c1ccccc1)N1CCc2c([nH]c3ccccc23)C1 [2-benzoyl-1H,2H,3H,4H,9H-pyrido[3,4-b]indole] | 2.7
3 | O=C(c1ccc(O)cc1)N1CCc2c(n(Cc3cccc(O)c3)c3ccccc23)C1 [4-({9-[(3-hydroxyphenyl)methyl]-1H,2H,3H,4H,9H-pyrido[3,4-b]indol-2-yl}carbonyl)phenol] | 0.42
4 | O=C(c1ccc(O)cc1)N1CCc2c(n(Cc3ccccc3)c3ccccc23)C1 [4-({9-benzyl-1H,2H,3H,4H,9H-pyrido[3,4-b]indol-2-yl}carbonyl)phenol] | 1.3
5 | Cn1c2c(c3ccccc31)CCN(C(=O)c1ccc(O)cc1)C2 [4-({9-methyl-1H,2H,3H,4H,9H-pyrido[3,4-b]indol-2-yl}carbonyl)phenol] | 1.4
6 | O=C(c1ccc(O)cc1)N1CCc2c([nH]c3ccccc23)C1 [4-{1H,2H,3H,4H,9H-pyrido[3,4-b]indol-2-ylcarbonyl}phenol] | 1.4
7 | COC(=O)Cn1c2c(c3ccccc31)CCN(C(=O)c1ccc(O)cc1)C2 [methyl 2-{2-[(4-hydroxyphenyl)carbonyl]-1H,2H,3H,4H,9H-pyrido[3,4-b]indol-9-yl}acetate] | 9.8
8 | COC(=O)CCCCn1c2c(c3ccccc31)CCN(C(=O)c1ccc(O)cc1)C2 [methyl 5-{2-[(4-hydroxyphenyl)carbonyl]-1H,2H,3H,4H,9H-pyrido[3,4-b]indol-9-yl}pentanoate] | 4.6
